Assay results reported in ChEMBL document CHEMBL1201862, “PubChem BioAssay data set” (2004).
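Tested at 5 concentrations; 48 h exposure; 96-well plates; endpoints linearly interpolated, else capped at highest concentration. GI50 is the concentration that inhibits growth by half.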 Calls of active or inactive are those of the source. No stated cut-off is given here; in the data, active = GI50 up to about 1.1 µM and inactive = higher.

Columns and labels:
Assay in all cases: NCI anticancer screen, dose series, 48 h
NCI-H226 = test system: NCI-H226
NCI-H522 = test system: NCI-H522
Malme-3M = test system: Malme-3M
DLD-1 = test system: DLD-1
U-251 = test system: U-251
A498 = test system: A498
K562 = test system: K562
786-0 = test system: 786-0
NCI-H23 = test system: NCI-H23
SK-MEL-5 = test system: SK-MEL-5
RPMI-8226 = test system: RPMI-8226
HT-29 = test system: HT-29
HOP-18 = test system: HOP-18
KM12 = test system: KM12
EKVX = test system: EKVX
HCC 2998 = test system: HCC 2998
SK-OV-3 = test system: SK-OV-3
CCRF-CEM = test system: CCRF-CEM
NCI-H460 = test system: NCI-H460
TK-10 = test system: TK-10
RXF 393 = test system: RXF 393
M19-MEL = test system: M19-MEL
XF498 = test system: XF498
KM-20L2 = test system: KM-20L2
UO-31 = test system: UO-31
LXFL 529 = test system: LXFL 529
SNB-78 = test system: SNB-78
SF-295 = test system: SF-295
OVCAR-8 = test system: OVCAR-8
ACHN = test system: ACHN
DMS-273 = test system: DMS-273
M14 = test system: M14
SNB-19 = test system: SNB-19
HCT-15 = test system: HCT-15
IGROV-1 = test system: IGROV-1
RXF 631 = test system: RXF 631
SNB-75 = test system: SNB-75
OVCAR-4 = test system: OVCAR-4
HL-60 = test system: HL-60
A549 = test system: A549
COLO 205 = test system: COLO 205
OVCAR-5 = test system: OVCAR-5
SF-539 = test system: SF-539
SK-MEL-2 = test system: SK-MEL-2
CAKI-1 = test system: CAKI-1
MOLT-4 = test system: MOLT-4
UACC-257 = test system: UACC-257
OVCAR-3 = test system: OVCAR-3
SR = test system: SR
HOP-62 = test system: HOP-62
LOX IMVI = test system: LOX IMVI
HCT-116 = test system: HCT-116
UACC-62 = test system: UACC-62
SN12C = test system: SN12C
SW-620 = test system: SW-620
SK-MEL-28 = test system: SK-MEL-28
DMS-114 = test system: DMS-114
SF-268 = test system: SF-268
HOP-92 = test system: HOP-92

CC(=O)c1ccccc1NC(=O)C(=O)C(C(=O)c1ccccc1-c1ccccc1)C1OC(=O)c2ccccc21 (stereo not drawn)
GI50 (NCI-H226): 14.9 µM (inactive) | GI50 (NCI-H522): 14.7 µM (inactive) | GI50 (Malme-3M): 15.5 µM (inactive) | GI50 (DLD-1): 23.1 µM (inactive) | GI50 (U-251): 16 µM (inactive) | GI50 (A498): 20.5 µM (inactive) | GI50 (K562): 25.3 µM (inactive) | GI50 (786-0): 18.6 µM (inactive) | GI50 (NCI-H23): 16.5 µM (inactive) | GI50 (SK-MEL-5): 19.1 µM (inactive) | GI50 (RPMI-8226): 27.3 µM (inactive) | GI50 (HT-29): 26.9 µM (inactive) | GI50 (HOP-18): 15.2 µM (inactive) | GI50 (KM12): 18 µM (inactive) | GI50 (EKVX): 29.7 µM (inactive) | GI50 (HCC 2998): 16.2 µM (inactive) | GI50 (SK-OV-3): 31.8 µM (inactive) | GI50 (CCRF-CEM): 25.1 µM (inactive) | GI50 (NCI-H460): 19.1 µM (inactive) | GI50 (TK-10): 14.9 µM (inactive) | GI50 (RXF 393): 11.5 µM (inactive) | GI50 (M19-MEL): 17.2 µM (inactive) | GI50 (XF498): 11.3 µM (inactive) | GI50 (KM-20L2): 26.6 µM (inactive) | GI50 (UO-31): 18.2 µM (inactive) | GI50 (LXFL 529): 15.5 µM (inactive) | GI50 (SNB-78): 30.4 µM (inactive) | GI50 (SF-295): 22.2 µM (inactive) | GI50 (OVCAR-8): 19.1 µM (inactive) | GI50 (ACHN): 22.5 µM (inactive) | GI50 (DMS-273): 31.9 µM (inactive) | GI50 (M14): 18.2 µM (inactive) | GI50 (SNB-19): 22.1 µM (inactive) | GI50 (HCT-15): 19.7 µM | GI50 (IGROV-1): 22.2 µM (inactive) | GI50 (RXF 631): 50.6 µM (inactive) | GI50 (SNB-75): 25.5 µM (inactive) | GI50 (OVCAR-4): 33.7 µM (inactive) | GI50 (HL-60): 23.9 µM (inactive) | GI50 (A549): 25.5 µM (inactive) | GI50 (COLO 205): 23.2 µM (inactive) | GI50 (OVCAR-5): 29.2 µM (inactive) | GI50 (SF-539): 17.8 µM (inactive) | GI50 (SK-MEL-2): 17.2 µM (inactive) | GI50 (CAKI-1): 37.8 µM (inactive) | GI50 (MOLT-4): 24.8 µM (inactive) | GI50 (UACC-257): 15.7 µM (inactive) | GI50 (OVCAR-3): 20.7 µM (inactive) | GI50 (SR): 21.6 µM (inactive) | GI50 (HOP-62): 20.1 µM (inactive) | GI50 (LOX IMVI): 18.7 µM (inactive) | GI50 (HCT-116): 17.8 µM (inactive) | GI50 (UACC-62): 20.7 µM (inactive) | GI50 (SN12C): 17.1 µM (inactive) | GI50 (SW-620): 34.3 µM (inactive)

CC1(C)CCCC2(C)[C@@H]1CC[C@]13C[C@](C)(CC[C@@H]21)[C@@H]3CO (stereo partly drawn)
GI50 (NCI-H226): > 100 µM (inactive) | GI50 (NCI-H522): > 100 µM (inactive) | GI50 (Malme-3M): > 100 µM (inactive) | GI50 (DLD-1): > 100 µM (inactive) | GI50 (SK-MEL-28): > 100 µM (inactive) | GI50 (DMS-114): > 100 µM (inactive) | GI50 (U-251): > 100 µM (inactive) | GI50 (K562): > 100 µM (inactive) | GI50 (NCI-H23): > 100 µM (inactive) | GI50 (SK-MEL-5): > 100 µM (inactive) | GI50 (RPMI-8226): > 100 µM (inactive) | GI50 (SF-268): > 100 µM (inactive) | GI50 (HT-29): > 100 µM (inactive) | GI50 (KM12): > 100 µM (inactive) | GI50 (HCC 2998): > 100 µM (inactive) | GI50 (SK-OV-3): > 100 µM (inactive) | GI50 (CCRF-CEM): > 100 µM (inactive) | GI50 (NCI-H460): > 100 µM (inactive) | GI50 (TK-10): > 100 µM (inactive) | GI50 (RXF 393): 98.9 µM (inactive) | GI50 (M19-MEL): > 100 µM (inactive) | GI50 (XF498): > 100 µM (inactive) | GI50 (HOP-92): > 100 µM (inactive) | GI50 (KM-20L2): > 100 µM (inactive) | GI50 (UO-31): > 100 µM (inactive) | GI50 (LXFL 529): > 100 µM (inactive) | GI50 (SNB-78): > 100 µM (inactive) | GI50 (SF-295): > 100 µM (inactive) | GI50 (ACHN): > 100 µM (inactive) | GI50 (DMS-273): > 100 µM (inactive) | GI50 (M14): > 100 µM (inactive) | GI50 (SNB-19): > 100 µM (inactive) | GI50 (HCT-15): > 100 µM | GI50 (IGROV-1): > 100 µM (inactive) | GI50 (RXF 631): > 100 µM (inactive) | GI50 (SNB-75): 46.7 µM (inactive) | GI50 (OVCAR-4): > 100 µM (inactive) | GI50 (HL-60): > 100 µM (inactive) | GI50 (A549): > 100 µM (inactive) | GI50 (COLO 205): > 100 µM (inactive) | GI50 (OVCAR-5): > 100 µM (inactive) | GI50 (SF-539): > 100 µM (inactive) | GI50 (CAKI-1): > 100 µM (inactive) | GI50 (MOLT-4): > 100 µM (inactive) | GI50 (UACC-257): > 100 µM (inactive) | GI50 (OVCAR-3): > 100 µM (inactive) | GI50 (SR): > 10 µM (inactive) | GI50 (HOP-62): > 100 µM (inactive) | GI50 (LOX IMVI): > 100 µM (inactive) | GI50 (HCT-116): > 100 µM (inactive) | GI50 (UACC-62): > 100 µM (inactive) | GI50 (SN12C): > 100 µM (inactive) | GI50 (SW-620): > 100 µM (inactive)
